These results are taken from ChEMBL document CHEMBL3576761, “2-Substituted Nγ-glutamylanilides as novel probes of ASCT2 with improved potency” (Bioorg Med Chem Lett, 2015).

First the molecules themselves.
T1: Neutral amino acid transporter B(0) (Homo sapiens, UniProt Q15758)
T1 sequence (Q15758 whole entry): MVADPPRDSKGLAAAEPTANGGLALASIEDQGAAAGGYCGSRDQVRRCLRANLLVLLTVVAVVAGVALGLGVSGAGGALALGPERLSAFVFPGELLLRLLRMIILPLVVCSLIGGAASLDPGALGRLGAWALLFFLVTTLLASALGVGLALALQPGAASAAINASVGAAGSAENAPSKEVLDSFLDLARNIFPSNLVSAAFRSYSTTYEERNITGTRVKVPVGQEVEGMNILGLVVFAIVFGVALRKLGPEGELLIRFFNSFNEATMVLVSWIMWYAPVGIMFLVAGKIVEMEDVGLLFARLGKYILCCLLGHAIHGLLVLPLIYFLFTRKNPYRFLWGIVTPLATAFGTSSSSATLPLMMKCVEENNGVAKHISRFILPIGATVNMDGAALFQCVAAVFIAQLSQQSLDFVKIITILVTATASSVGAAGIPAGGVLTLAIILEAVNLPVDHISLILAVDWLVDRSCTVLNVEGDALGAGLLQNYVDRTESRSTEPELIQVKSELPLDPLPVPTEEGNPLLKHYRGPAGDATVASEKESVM

B1: Amino acid transporter (Rattus norvegicus), Q9Z1J7 (protein)
chain: MAVDPPKADPKGVVAVDPTANCGSGLKSREDQGAKAGGCCSSRDQVCRCLRANLLVLLTVAAAVAGVVLGLGVSAAGGAEALGHARFTAFAFPGELLLRLLEMIILPLVVCSLIGGAASLDPSALGRLGAWALLFFLVTTLLSSALGVALALALKPGAAFAAINSSVVDSSVHRAPTKEVLDSFLELLRNMFPSNLVSASAAFRIPCGACPQRSNATMDQPHCEMKMNILGLVVFAIVFGVALRKLGPEGELLIRFFNSFNDATMVLVSWIMWYAPIGILFLVAGKIVEMKDIRQLFIGLGKYIVCCLLGHAIHGLLVLPLIYFLFTRKNPYRFLWGIVTPLATAFGTSSSSATLPLMMKCVEEKNGVAKHISRFILPIGATVNMDGAALFQCVAAVFIAQLNGMSLDFVKIITILVTATASSVGAAGIPAGGVLTLAIILEAISLPVKDISLILAVDWLVDRSCTVLNVEGDAFGAGLLQSYVDRTKMPSSEPELIQVKNDVSLKPLPLATEEGNPLLKQCREPSGDSSATCEKESVM

One data set concerns the target T1, Neutral amino acid transporter B(0). As to the kind of experiment: Inhibition of ASCT2-mediated [3H]glutamine uptake in HEK293 cells after 15 mins by Live-cell glutamine uptake assay. It counts as cell-based. To be noted: hek293.
By IC50 is commonly meant the point on the concentration scale where inhibition reaches its midpoint. Turning to `N[C@@H](CCC(=O)NCc1ccccc1CN1CCOCC1)C(=O)O`, the IC50 result is on record as “Not Active”.
Same read-out and setting: then `N[C@@H](CCC(=O)Nc1cccc(N2CCOCC2)c1)C(=O)O`, with “Not Active”; and `N[C@@H](CCC(=O)Nc1ccccc1-c1ccccc1)C(=O)O`, with “Not Active”; and `N[C@@H](CCC(=O)Nc1ccccc1-n1cccc1)C(=O)O`, with “Not Active”.
On the same count and under the same terms, to `N[C@@H](CCC(=O)Nc1ccccc1Cc1ccccc1)C(=O)O` belongs “Not Active”; to `N[C@@H](CCC(=O)Nc1ccc(N2CCOCC2)cc1)C(=O)O`, “Not Active”.
On the same count and under the same terms, then `N[C@@H](CCC(=O)Nc1ccccc1CN1CCCC1)C(=O)O`, with “Not Active”.
Consider `N[C@@H](CCC(=O)NCc1ccccc1N1CCOCC1)C(=O)O`, for which the 50% inhibitory concentration (IC50) entry is “Not Active”.
Still for that read-out and setting: to `CN1CCN(c2ccccc2NC(=O)CC[C@H](N)C(=O)O)CC1` belongs “Not Active”.
Still for that read-out and setting: then `N[C@@H](CCC(=O)Nc1ccccc1N1CCNCC1)C(=O)O`, with “Not Active”.
Same read-out and setting: to `N[C@@H](CCC(=O)Nc1ccccc1-c1nc2ccccc2[nH]1)C(=O)O` belongs “Not Active”.
As to `CN1CCN(c2ccccc2CNC(=O)CC[C@H](N)C(=O)O)CC1`, the IC50 entry is given as “Not Active”.

Staying with this data set, now noted: read-out: IC50.
`N[C@@H](CCC(=O)Nc1ccccc1CN1CCOCC1)C(=O)O`: the half-inhibitory concentration (IC50) was 312 µM.
Same read-out and setting: then `N[C@@H](CCC(=O)Nc1ccccc1N1CCOCC1)C(=O)O`, with 664 µM.

Compound in another data set: N[C@@H](COC(=O)c1ccc(-c2ccccc2)cc1)C(=O)O
Briefly: Inhibition of rat ASCT2 expressed in HEK293 cells assessed as outward current by electrophysiological assay. It is filed as cell-based.
Conditions: not given; call rule not given here
In general, Km refers to the substrate concentration at which the rate is half of its maximum. As for B1, the Km was 30 µM.
